According to patent US20170296568A1, “SIRTUIN GENE POTENTIATOR, AND PHARMACEUTICAL PRODUCT, COSMETIC PRODUCT, AND FOOD PRODUCT USING SAME” (MORISHITA JINTAN CO., LTD., priority 2012, published 2017):

Legend:
Assay type in all cases: cell-based, human
[1] = test system: hSIRT1 promoter; assay: Screening for SIRT1 enhancing polyphenol or terpenoid: hSIRT1 promoter activity (EGFP fluorescence) in Caco-2-hSIRT1p-EGFP cells; settings: 10 μM, 2 days after addition, relative ratio to control (PBS), FIG. 1
Excerpt: First, the promoter region (−1593 to −1 bp) of hSIRT1 (human SIRT1) was acquired using the LA-PCR method using, as a template, a human genome DNA extracted from TIG-1 cells (obtained from Institute of Development, Aging and Cancer, Tohoku University), with primers synthesized based on reported information of the hSIRT1 genomic sequence so as to synthesize primers having added AseI and NheI recognition sequences at their respective ends (hSIRT1p-AseI (SEQ ID NO: 1) and hSIRT1p-NheI (SEQ ID NO: 2)). The PCR reaction condition was at 94° C. for 1 minute, followed by at 98° C. for 20 seconds; and at 68° C. for 2 minutes, 34 cycles; and then at 72° C. for 10 minutes for extension reaction. LA-Taq from Takara Shuzo Co., Ltd. was used as the TaqDNApolymerase. The primers were synthesized by Nippon EGT based on our request.
The hSIRT1 promoter fragment obtained by the LA-PCR was subjected to TA cloning using a pGEM-T Easy vector (manufactured by Promega KK). Furthermore, the base sequence thereof was confirmed by sequencing. The hSIRT1 promoter fragment, inserted into the pGEM-T Easy vector, was cut out by digestion with the restriction enzymes AseI and NheI, and the CMV promoter of a pEGFP-C3 (manufactured by Takara Bio Inc.) was removed by digestion with AseI and NheI in a similar manner, and the hSIRT1 promoter fragment was inserted into that removed site, so that phSIRT1p-EGFP was obtained.
Transfection was performed using a LIPOFECT AMINE 2000 REAGENT (manufactured by Life Technologies) according to its protocol. On the day before the transfection, Caco-2 cells (human colonic cancer-derived cells obtained from Riken BioResource Center) were plated at 1.0×10^6 in a 10-mL dish. On the day of the transfection, phSIRT1p-EGFP (10 μg) was diluted in a serum-free OPTI-MEM medium to a volume of 750 μL, after which 15 μL of LIPOFECT AMINE Reagent was diluted in a serum-free OPTI-MEM medium to […], and they were incubated at room temperature for 5 minutes. The transfection using the LIPOFECT AMINE Reagent was performed in the absence of serum, during which the culture medium of the Caco-2 cells plated on the previous day was removed, and was replaced by 5 mL of serum-free OPTI-MEM medium. After 30 minutes of this, 1.5 mL of DNA-LIPOFECT AMINE 2000 mixture was added to each 10-mL dish. After the addition, the dish was gently shaken to mix the DNA-LIPOFECT AMINE and the OPTI-MEM. After the culture for 3 hours, the DNA-LIPOFECT AMINE mixture solution was removed, and the medium was replaced by a serum-containing culture medium. Subsequently, culture was performed under the environment at 5% CO2/95% air and 37° C. for 21 hours, and the culture medium was replaced by a new one.
Since phSIRT1p-EGFP is resistant to the drug G418, the drug G418 was added to the transfected cells to 70 μg/mL to subject them to the drug selection for a week. The culture medium was replaced by a new one every three days, and G418 was added every time at the same concentration. Accordingly, Caco-2-hSIRT1p-EGFP cells were obtained.
Caco-2-hSIRT1p-EGFP cells were plated at 0.6×10^4 cells/well in a 96-well plate. On the next day, 10 μM polyphenol or terpenoid, or control (PBS) was added to each well. At 2 days after the addition, the culture solution was aspirated, after which 100 μL of 4% paraformaldehyde was added to each well, and the plate was allowed to stand at room temperature for 10 minutes. After the plate was allowed to stand for 10 minutes, 4% paraformaldehyde was aspirated, 100 μL of Cellstain (registered trademark)-Hoechst 33342 solution (Dojindo) diluted 1/500 with PBS was added to each well, and the plate was allowed to stand at room temperature in the dark for 15 minutes and the solution was then aspirated. Then, 100 μL of PBS was added to each well, and the fluorescence intensity was measured using an IN Cell Analyzer 1000 (GE Healthcare, Amersham Place, UK). The promoter activity was represented by a relative ratio to the activity of the control.

[2] = test system: hSIRT1 promoter; assay: Enhancing the hSIRT1 promoter: EGFP fluorescence intensity in HaCaT-hSIRT1p-EGFP cells by flow cytometry; settings: 10 μM in DMSO, 24 hours after addition, FIG. 4
Procedure: HaCaT cells (human epidermis keratinocyte-derived cell lines, provided by Dr. Takumi Miura, National Center for Child Health and Development) were cultured using a Dalbecco's Modified Eagle Medium (DMEM) medium (Nissui Pharmaceutical Co., Ltd, Tokyo) supplemented with 10% FBS, 100,000 U/L penicillin (Meiji, Tokyo), 100 mg/L streptomycin (Meiji), and 2.0 g/L NaHCO3. These cells were subcultured at 37° C. in the presence of 5% CO2.
HaCaT cell lines (HaCaT-hSIRT1p-EGFP cells) into which the vector (phSIRT1-EGFP) described in Reference Example 1 was integrated were prepared as below.
The HaCaT cells were disseminated at 9.0×10^5 in a φ60-mm dish, and were cultured in 10% FBS supplemented DMEM medium. Cells as a control were prepared in a similar manner. After 24 hours, 8 μg of phSIRT1p-EGFP was added to and mixed with 300 μL of DMEM medium, 24 μL of Hilymax (manufactured by Dojindo Laboratories), which is a transfection reagent, was further added and mixed therewith, and the mixture was incubated for 15 minutes at room temperature. Subsequently, the total amount was added to the HaCaT cells. After 3 hours, the medium was replaced by 10% FBS supplemented DMEM medium.
At 24 hours after the gene introduction, the medium was replaced by 10% FBS supplemented DMEM medium containing 750 μg/mL of G418 (Wako Pure Chemical Industries, Ltd.). After visually confirming under a microscope that all the control non-treated HaCaT cells were killed, the subculture was continued using 10% FBS supplemented DMEM containing 150 μg/mL of G418.
It was confirmed with flow cytometry that the phSIRT1p-EGFP vector was reliably transferred inro the cells after the subculture. The above-described cells and the control non-treated HaCaT cells were plated at 7.0×10^5 per a φ60-mm dish, respectively. After 24 hours, the cells were picked up and well suspended in 2 mL of 5% FBS supplemented DMEM medium, and were filtered through a Nylon Mesh (Kyoshin Rikoh Inc., Japan), and the EGFP fluorescence intensity thereof was measured with a Flow Cytometer (EPICS, BeckmanCoulter). The analysis was performed using software FlowJo (Tree Star, Ashland Oreg.), so that the EGFP fluorescence intensity of each cell was represented as a histogram.
HaCaT-hSIRT1p-EGFP cells were plated at 1.7×10^6 cells in a φ60-mm dish (as measured by flow cytometry) or at 2.0×10^4 cells/well in a 96-well plate (as measured by an IN Cell Analyzer 1000). After 24 hours, 10 μM of each polyphenol or terpenoid dissolved in DMSO (Wako Pure Chemical Industries, Ltd.) was added thereto. Note that as a negative control, the same amount of DMSO was added without polyphenol or terpenoid, and as a positive control, 10 μM resveratrol was added. At 24 hours after the addition of the various polyphenols or terpenoids or the controls, the fluorescence intensity was measured by flow cytometry.

[3] = test system: sirtuin gene hSIRT1; assay: Expression level of endogenous sirtuin gene hSIRT1 in Caco-2 cells (quantitative PCR, relative to β-actin); settings: 10 μM, 2 days, qPCR normalised to β-actin, FIG. 2
Procedure: Caco-2 cells were plated at 3.0×10^5 cells for a 5-mL dish. After 24 hours, each polyphenol was added to be 10 μM. Note that as a negative control, none of polyphenol nor terpenoid was added, and as a positive control, 10 μM resveratrol was added. At 2 days after this treatment, RNA was collected.
The total RNA was prepared using High Pure RNA Isolation Kit (manufactured by Roche, Indianapolis, Ind., USA). For the procedures from the total RNA preparation to the reverse transcription, the reagents and tools used were RNase-free. Cells were prepared in a sub-confluent to confluent condition in a cell culture dish (Greiner bio-one, Monroe, N.C., USA). The medium was completely removed, 200 μL of PBS, and 400 μL of cell lysis solution, which was contained in High Pure RNA Isolation Kit, were added, and the entire dish was well covered by the cell lysis solution. When the viscosity of the cell lysis solution was decreased, the cell lysis solution was collected into a 1.5-mL sample tube. The collected sample was well suspended. A filter tube and a collection tube, which were contained in High Pure RNA Isolation Kit, were assembled, and the sample was pipetted into a buffer reservoir in the upper portion of the filter tube, and was centrifuged at 8,000×g for 15 seconds. The flowthrough liquid into the collection tube was discarded, and the filter tube and the collection tube were again assembled. Then, 90 μL of DNase incubation buffer per sample was pipetted into a sterile reaction tube, and 10 μL of DNase I was added into the tube and mixed. The mixture liquid was pipetted into the buffer reservoir in the upper portion of the filter tube, was added on the glass fiber fleece in the filter tube, and was incubated at room temperature for 15 minutes. Then, 500 μL of wash buffer I, which was contained in High Pure RNA Isolation Kit, was added to the buffer reservoir in the upper portion of the filter tube, and was centrifuged at 8,000×g for 15 seconds. The flowthrough liquid into the collection tube was discarded, and the filter tube and the collection tube were again assembled. Then, 500 μL of wash buffer II was added to the buffer reservoir in the upper portion of the filter tube, and centrifugation was performed at 8,000×g for 15 seconds. The liquid discharged to the collection tube was discarded, and the filter tube and the collection tube were again assembled. Then, 200 μL of wash buffer II was added to the buffer reservoir in the upper portion of the filter tube, and centrifugation was performed at 13,000×g for 2 minutes, after which a remaining wash buffer in the filter tube was removed. The collection tube was discarded, the filter tube was inserted into a sterile reaction tube, and 50 μL of elution buffer was added in the filter tube, and centrifugation was performed at 8,000×g for 1 minute. The eluate obtained by the procedures was taken as an RNA solution. The concentration of RNA in the solution was calculated based on the light absorbance at 260 nm with a NanoDrop 2000/2000c spectrophotometer (Thermo Scientific, Waltham, Mass., USA), for use in subsequent experiments.
Then, 5 pmol of oligo(dT)20 primer was added to 1.0 μg of total RNA extracted from the cells, and sterile water was further added thereto so that the total liquid amount was 13 μL. Heat treatment was performed using a thermal cycler (Peltier Thermal Cycler PTC-200, MJ Research, Watertown, Mass., USA) at 65° C. for 5 minutes, and the resultant was immediately transferred in ice to quench it. During this treatment, the reverse transcriptase reaction program was advanced to the 42° C. stage and was temporarily stopped. A mixture solution obtained by mixing 4 μL of reverse transcriptase reaction buffer solution, 2 μL of 1 mM dNTPs (Amershan Pharmacia Biotech., Buckinghamshire, UK), and 0.5 μL of reverse transcriptase ReverTra Ace (TOYOBO, Osaka, Japan) per sample was added to and gently mixed with the sample on ice after 5 minutes. […]

Row | Structure (SMILES) | relative hSIRT1 promoter activity [1] | EGFP fluorescence intensity (hSIRT1 promoter activity) [2] | relative gene expression level of hSIRT1 [3]
1 | O=C(O[C@H]1[C@@H]2OC(=O)c3cc(O)c(O)c(O)c3-c3c(cc(O)c(O)c3O)C(=O)OC[C@H]2OC(O)[C@@H]1OC(=O)c1cc(O)c(O)c(O)c1)c1cc(O)c(O)c(O)c1 (stereo partly shown) [tellimagrandin I] | particularly strong hSIRT1 promoter enhancing activity | hSIRT1 expression effect on skin epidermis cells was seen | 
2 | CC1(C)[C@@H](O[C@H]2O[C@H](C(=O)O)[C@@H](O)[C@H](O)[C@H]2O[C@@H]2O[C@H](C(=O)O)[C@@H](O)[C@H](O)[C@H]2O)CC[C@]2(C)[C@H]3C(=O)C=C4[C@@H]5C[C@@](C)(C(=O)O)CC[C@]5(C)CC[C@@]4(C)[C@]3(C)CC[C@@H]12 [glycyrrhizin] |  |  | hSIRT1 transcription enhancing effect was observed
3 | O=C(O[C@@H]1O[C@@H]2COC(=O)c3cc(O)c(O)c(O)c3-c3c(cc(O)c(O)c3O)C(=O)O[C@H]2[C@H](OC(=O)c2cc(O)c(O)c(O)c2)[C@H]1OC(=O)c1cc(O)c(O)c(O)c1)c1cc(O)c(O)c(O)c1 [eugeniin] | particularly strong hSIRT1 promoter enhancing activity |  | hSIRT1 transcription enhancing effect was observed
4 | C[C@@]12CCc3occc3[C@H]1CC[C@@]13C[C@@H](CC[C@H]12)[C@@](O)(CO)C3 [cafestol] | particularly strong hSIRT1 promoter enhancing activity |  | hSIRT1 transcription enhancing effect was observed
